Results: US20090156620A1, “[4-(6-FLUORO-7-METHYLAMINO-2,4-DIOXO-1,4-DIHYDRO-2H-QUINAZOLIN-3-YL)-PHENYL]-5-CHLORO-THIOPHEN-2-YL-SULFONYLUREA SALTS, FORMS AND METHODS RELATED THERETO” (Portola Pharmaceuticals, Inc., priority 2007, published 2009)

How the values were obtained:
[1] = gravimetric vapour sorption (GVS); assay type: physicochemical
Procedure: Sorption isotherms were obtained using a Hiden IGASorp moisture sorption analyser, controlled by CFRSorp software. The sample temperature was maintained at 25° C. by a Huber re-circulating water bath. The humidity was controlled by mixing streams of dry and wet nitrogen, with a total flow rate of 250 ml.min^−1. […] (typical room conditions). A moisture sorption isotherm was performed as outlined below (2 scans giving 1 complete cycle). […] The software uses a least squares minimisation procedure together with a model of the mass relaxation, to predict an asymptotic value. […] The minimum equilibration time was set to 1 hour and the maximum to 4 hours. The sample was recovered after completion of the isotherm and re-analysed by XRPD.

[2] = accelerated stability test, chemical purity; assay type: physicochemical; conditions: one week, 40° C., 75% RH
Procedure: Purity analysis was performed on an Agilent HP1100 system equipped with a diode array detector and using ChemStation software v9.

[3] = molecular target: T1, P2Y12 receptor on platelets (Homo sapiens, UniProt Q9H244); test: platelet ADP receptor binding assay (ARB), inhibition of [3H]2-MeS-ADP binding to platelets
T1 construct: endogenous in cells; host or cells: whole apyrase-washed human platelets (outdated from hospital blood banks, or fresh)
T1 sequence (Q9H244 whole entry): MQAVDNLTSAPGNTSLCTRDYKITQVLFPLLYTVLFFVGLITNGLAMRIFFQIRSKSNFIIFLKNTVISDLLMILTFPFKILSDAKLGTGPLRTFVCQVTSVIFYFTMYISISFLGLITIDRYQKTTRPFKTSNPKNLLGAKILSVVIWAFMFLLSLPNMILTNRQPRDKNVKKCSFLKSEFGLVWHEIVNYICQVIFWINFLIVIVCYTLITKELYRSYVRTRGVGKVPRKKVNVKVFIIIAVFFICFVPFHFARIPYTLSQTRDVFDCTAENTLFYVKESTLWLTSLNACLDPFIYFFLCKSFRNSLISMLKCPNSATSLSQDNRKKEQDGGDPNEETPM
Procedure: 1. The Ability of Candidate Molecules to Inhibit the Binding of [3H]2-MeS-ADP to the P2Y12 Receptor on Platelets was Determined Using a Radioligand Binding Assay
Utilizing this assay the potency of inhibition of such compounds with respect to [^3H]2-MeS-ADP binding to whole platelets is determined. Under the conditions described in II (3) below, the binding of [^3H]2-MeS-ADP is solely due to the interaction of this ligand with the P2Y12 receptor, in that all the specific binding measured in this assay is compatable with a P2Y12 antagonist (i.e., the specific binding is reduced to background levels by competition with an excess of P2Y12 antagonist, with no competition of binding when a P2Y1 antagonist is pre-incubated with the platelet preparation). […]
A platelet ADP receptor binding assay (ARB) using the tritiated potent agonist ligand [^3H]2-MeS-ADP (Jantzen, H. M. et al. (1999) Thromb. Hemost. 81:111-117) has been adapted to the 96-well microtiter format. […] Total binding is determined in the absence of test compounds. […] The platelet-bound radioactivity on the filtermats is determined in a scintillation counter (Microbeta 1450, Wallac Inc., Gaithersburg, Md.). Specific binding is determined by subtraction of non-specific binding from total binding, and specific binding in the presence of test compounds is expressed as % of specific binding in the absence of test compound dilutions. […]

[4] = system: ADP-induced human platelet aggregation; test: inhibition of ADP-mediated platelet aggregation in platelet-rich plasma (PRP assay); assay type: cell-based
Procedure: The effect of testing the compound according to the invention on ADP-induced human platelet aggregation was assessed in a 96-well microtiter assay (see generally the procedures in Jantzen, H. M. et al. (1999) Thromb. Hemost. 81:111′-117) or standard cuvette light transmittance aggregometry using either human platelet-rich plasma (PRP) or human washed platelets.
For preparation of human platelet-rich plasma for aggregation assays, human venous blood was collected from healthy, drug-free volunteers into 0.38% sodium citrate (0.013 M, pH 7.0 final). Platelet-rich plasma (PRP) is prepared by centrifugation of whole blood at 160×g for 20 minutes at room temperature. […]
For cuvette light transmittance aggregation assays, serial dilutions (1:3) of test compounds were prepared in 100% DMSO in a 96 well V-bottom plate (final DMSO concentration in the cuvette was 0.6%). […] The aggregation reaction is recorded for ˜5 mins, and maximum extent of aggregation is determined by the difference in extent of aggregation at baseline, compared to the maximum aggregation that occurs during the five minute period of the assay. Inhibition of aggregation was calculated as the maximum aggregation observed in the presence of inhibitor, compared to that in the absence of inhibitor. […]

[5] = solid form stability on storage at elevated temperature/humidity, by XRPD; assay type: physicochemical; conditions: 75% RH/40° C. for up to 6 months
Procedure: To 20 mg of [4-(6-fluoro-7-methylamino-2,4-dioxo-1,4-dihydro-2H-quinazolin-3-yl)-phenyl]-5-chloro-thiophen-2-yl-sulfonylurea in 3 mL of the various solvents, was added 1.1 eq. of the base in 1 mL solvent. The mixture was shaken for 2 hours and the solutions were left to evaporate down to half their volume to try to precipitate out the salt. […] Oils/emulsions and opaque liquids were left to maturate at 50° C./ambient in an 8 hour cycles for several weeks. […] Solid samples (crystalline and amorphous) were then filtered, dried and then analyzed to judge their purity, crystallinity and stability. Solids were analysed by ^1H NMR to confirm salt formation and analyzed by ion chromatography and TGA to obtain the stoichiometry of the salt.

[6] = solid form stability of API dispersed in aqueous vehicle; assay type: physicochemical; conditions: dry ground API dispersed into aqueous 0.1M phosphate buffer
Description: It was observed that after grinding the API with the diluent of Tox formulation, i.e., 0.5% methylcellulose and 0.1M phosphate sodium buffer at pH7.4, the drug particles became very dense and quickly precipitated during transfer and dosing. […] In addition, if only dry grinding is used to reduce the particle size of the API first and subsequently, the API is quickly dispersed into aqueous 0.1M phosphate buffer without applying significant mechanical stress, the solid form of the API can be maintained in form B for at least 6 hours.

[7] = polymorphism experiments, form B slurried in solvents; assay type: physicochemical; conditions: ca. 50 mg in ten volumes, ambient, two hours
Description: The propensity of [4-(6-fluoro-7-methylamino-2,4-dioxo-1,4-dihydro-2H-quinazolin-3-yl)-phenyl]-5-chloro-thiophen-2-yl-sulfonylurea potassium salt form B to form polymorphs was studied. Form B (a hemi-hydrate) was slurried in a range of solvents (neat and mixtures). The solvents were chosen based on their pharmaceutical acceptability and also a range of functional groups and polarities such as alcohols, ethers and esters. To encourage hydrate formation, aqueous mixtures were also chosen. The solvents used are detailed in Table 7.
Approximately 50 mg of [4-(6-fluoro-7-methylamino-2,4-dioxo-1,4-dihydro-2H-quinazolin-3-yl)-phenyl]-5-chloro-thiophen-2-yl-sulfonylurea potassium salt, form B was suspended in ten volumes of the solvents detailed in table 7 and stirred at ambient for two hours. […] The suspensions were filtered under vacuum and analysed by XRPD. Most of the solids remained as form B, with a 1:1 acetone/water mixture leading to a subtle change in solid form. The 1:1 tetrahydrofuran/water mixture generated a mixture of that subtly different form and form B.
To all the form B samples a further aliquot of five volumes of appropriate solvent was added and the suspensions were slurried at 50° C. for 4 hours then cooled to ambient for 4 hours. This cycle was repeated for a total of 24 hours, after which time the suspensions were filtered under vacuum and analysed by XRPD.

XRPD after the GVS experiment [1]	change in solid state [5]	time the solid form is maintained in form B [6]	Molecule	hygroscopicity [1]	RH range in which the 2.5 hydrate is stable ([1]; 25° C.)	dehydration ([1]; 25° C.)	change in the chemical purity [2]	IC50 [3]	IC50 [4]	solvents that dissolved the salt [7]
–	–	–	CNc1cc2[nH]c(=O)n(-c3ccc(NC(=O)NS(=O)(=O)c4ccc(Cl)s4)cc3)c(=O)c2cc1F.[K] [Form A of the potassium salt, [4-(6-fluoro-7-methylamino-2,4-dioxo-1,4-dihydro-2H-quinazolin-3-yl)-phenyl]-5-chloro-thiophen-2-yl-sulfonylurea potassium salt 2.5 hydrate]	less hygroscopic than the amorphous form of the sodium salt	20-90 % RH	dehydrates between 20 and 0% RH	No change	–	–	–
–	–	–	CNc1cc2[nH]c(=O)n(-c3ccc(NC(=O)NS(=O)(=O)c4ccc(Cl)s4)cc3)c(=O)c2cc1F [Example 2, [4-(6-fluoro-7-methylamino-2,4-dioxo-1,4-dihydro-2H-quinazolin-3-yl)-phenyl]-5-chloro-thiophen-2-yl-sulfonylurea]	–	–	–	–	< 0.05 µM	< 10 µM	–
no phase change	no change in solid state	at least 6 hours	[4-(6-fluoro-7-methylamino-2,4-dioxo-1,4-dihydro-2H-quinazolin-3-yl)-phenyl]-5-chloro-thiophen-2-yl-sulfonylurea potassium salt hemi hydrate [Form B of the potassium salt]	non-hygroscopic	–	–	–	–	–	2-methoxyethanol was the only solvent that dissolved the potassium salt
